Columns and labels:
Banzi virus [1] = assay: Indicates the number of animals that died and survivors lived through 21 days at 25 mg/kg against Banzi virus; type: functional
Coronaviridae = assay: Indicates the number of animals that died and survivors lived through 21 days at 100 mg/kg rat corona virus; type: functional, Coronavirus
[2] = Evaluated for its effect by the ratio between percent survivors and the total animals taken against San Angelo virus infection at a dose of 25 mg/kg half-daily intraperitoneal doses at 24 and 18 hours before the virus inoculation; 9/12; type: functional
Semliki Forest virus [3] = assay: Indicates the number of animals that died and survivors lived through 21 days at 25 mg/kg against Forest virus; type: functional
[4] = test system: Encephalomyocarditis virus; assay: Indicates the number of animals that died and survivors lived through 21 days at 25 mg/kg against EMC virus; type: functional
Semliki Forest virus [5] = assay: Indicates the number of animals that died and survivors lived through 21 days at 50 mg/kg against Forest virus; type: functional
[6] = Evaluated for its effect by the ratio between percent survivors and the total animals taken against EMC virus infection at a dose of 25 mg/kg half-daily intraperitoneal doses at 24 and 18 hours before the virus inoculation; 6/12; type: functional
San Angelo virus [7] = assay: Indicates the number of animals that died and survivors lived through 21 days at 25 mg/kg against San Angelo virus; type: functional
[8] = Evaluated for its effect by the ratio between percent survivors and the total animals taken against Forest virus infection at a dose of 50 mg/kg half-daily intraperitoneal doses at 24 and 18 hours before the virus inoculation; 10/12; type: functional
[9] = Evaluated for its effect by the ratio between percent survivors and the total animals taken against rat corna virus infection at a dose of 100 mg/kg half-daily intraperitoneal doses at 24 and 18 hours before the virus inoculation; 7/12; type: functional
[10] = Evaluated for its effect by the ratio between percent survivors and the total animals taken against San Angelo virus infection at a dose of 50 mg/kg half-daily intraperitoneal doses at 24 and 18 hours before the virus inoculation; 10/12; type: functional
Banzi virus [11] = assay: Indicates the number of animals that died and survivors lived through 21 days at 50 mg/kg against Banzi virus; type: functional
[12] = test system: Encephalomyocarditis virus; assay: Indicates the number of animals that died and survivors lived through 21 days at 50 mg/kg against EMC virus; type: functional
[13] = Evaluated for its effect by the ratio between percent survivors and the total animals taken against Banzi virus infection at a dose of 25 mg/kg half-daily intraperitoneal doses at 24 and 18 hours before the virus inoculation; 11/12; type: functional
[14] = Evaluated for its effect by the ratio between percent survivors and the total animals taken against Forest virus infection at a dose of 25 mg/kg half-daily intraperitoneal doses at 24 and 18 hours before the virus inoculation; 9/12; type: functional
[15] = Evaluated for its effect by the ratio between percent survivors and the total animals taken against EMC virus infection at a dose of 50 mg/kg half-daily intraperitoneal doses at 24 and 18 hours before the virus inoculation; 9/12; type: functional
San Angelo virus [16] = assay: Indicates the number of animals that died and survivors lived through 21 days at 50 mg/kg against San Angelo virus; type: functional
[17] = Evaluated for its effect by the ratio between percent survivors and the total animals taken against Banzi virus infection at a dose of 50 mg/kg half-daily intraperitoneal doses at 24 and 18 hours before the virus inoculation; 10/12; type: functional
[18] = Ratio between percent survivors and the total animals taken against Banzi virus infection at a dose of 25 mg/kg half-daily intraperitoneal doses at 24 and 18 hours before the virus inoculation; 11/12; type: functional
[19] = Ratio between percent survivors and the total animals taken against Forest virus infection at a dose of 50 mg/kg half-daily intraperitoneal doses at 24 and 18 hours before the virus inoculation; 9/12; type: functional
[20] = Ratio between percent survivors and the total animals taken against EMC virus infection at a dose of 25 mg/kg half-daily intraperitoneal doses at 24 and 18 hours before the virus inoculation; 8/12; type: functional
[21] = Ratio between percent survivors and the total animals taken against EMC virus infection at a dose of 50 mg/kg half-daily intraperitoneal doses at 24 and 18 hours before the virus inoculation; 9/12; type: functional
[22] = Ratio between percent survivors and the total animals taken against San Angelo virus infection at a dose of 50 mg/kg half-daily intraperitoneal doses at 24 and 18 hours before the virus inoculation; 11/12; type: functional
[23] = Ratio between percent survivors and the total animals taken against rat corona virus infection at a dose of 100 mg/kg half-daily intraperitoneal doses at 24 and 18 hours before the virus inoculation; 9/12; type: functional
[24] = Ratio between percent survivors and the total animals taken against San Angelo virus infection at a dose of 25 mg/kg half-daily intraperitoneal doses at 24 and 18 hours before the virus inoculation; 11/12; type: functional
[25] = Ratio between percent survivors and the total animals taken against Banzi virus infection at a dose of 50 mg/kg half-daily intraperitoneal doses at 24 and 18 hours before the virus inoculation; 12/12; type: functional
[26] = Ratio between percent survivors and the total animals taken against Forest virus infection at a dose of 25 mg/kg half-daily intraperitoneal doses at 24 and 18 hours before the virus inoculation; 8/12; type: functional

Cn1c(=S)n(C2O[C@H](CO)[C@@H](O)[C@H]2O)c2nc(N)nc(O)c21 (stereo partly specified)
Mean survival time (Banzi virus [1]): 9 days | Mean survival time (Coronaviridae): 9.4 days | Ratio [2]: 9 | Mean survival time (Semliki Forest virus [3]): 8 days | Mean survival time [4]: 5.5 days | Mean survival time (Semliki Forest virus [5]): 9 days | Ratio [6]: 6 | Mean survival time (San Angelo virus [7]): 11.3 days | Ratio [8]: 10 | Ratio [9]: 7 | Ratio [10]: 10 | Mean survival time (Banzi virus [11]): 9 days | Mean survival time [12]: 5.7 days | Ratio [13]: 11 | Ratio [14]: 9 | Ratio [15]: 9 | Mean survival time (San Angelo virus [16]): 10.5 days | Ratio [17]: 10

Cn1c(=O)n(C2O[C@H](CO)[C@@H](O)[C@H]2O)c2nc(N)nc(O)c21 (stereo partly specified)
Ratio [18]: 11 | Mean survival time (Banzi virus [1]): 8 days | Mean survival time (Coronaviridae): 9.7 days | Mean survival time (Semliki Forest virus [3]): 8.7 days | Mean survival time [4]: 8.3 days | Mean survival time (Semliki Forest virus [5]): 9.7 days | Mean survival time (San Angelo virus [7]): 12 days | Ratio [19]: 9 | Ratio [20]: 8 | Ratio [21]: 9 | Mean survival time (Banzi virus [11]): >21 days | Mean survival time [12]: 8 days | Ratio [22]: 11 | Ratio [23]: 9 | Ratio [24]: 11 | Ratio [25]: 12 | Ratio [26]: 8 | Mean survival time (San Angelo virus [16]): 10 days

Reference: ChEMBL document CHEMBL1125167, “Synthesis and broad-spectrum antiviral activity of 7,8-dihydro-7-methyl-8-thioxoguanosine” (1990)
